These results are taken from patent US10227312B2, “Glucosylceramide synthase inhibitors for the treatment of diseases” (BIOMARIN PHARMACEUTICAL INC., priority 2015, dated 2019).

One assay relates to K562 cells. The assay can be described thus: K562 Cell-Based Assay. The conditions noted are these: Homo sapiens, NBD-Ceramide, LCMS, read-out: Assay 2 (Cellular Assay; K562 cells) IC50. Here is the method: This assay was modified based on the study by Gupta et al. (J. Lipid Res. 2010, 51, 866). K562 cells were seeded into 12-well plates at 3×10^5 cells/well/mL in RPMI-1640 medium with 5% FBS and incubated at 37° C. for 24 h. One μL of a compound described herein at desired concentration (10 mM, 1 mM, 0.1 mM, 0.01 mM, 0.001 mM and 0.0001 mM in DMSO) or DMSO was added into the corresponding well and mixed. Cells were incubated at 37° C. for 4 h. Then 100 μL of RPMI-1640 medium containing 110 μM of NBD-Ceramide, 11% BSA, 5% FBS, and corresponding concentration of a compound described herein was added into each well and mixed. Cells were incubated for additional 0.5 h at 37° C., followed by washing the cells with ice-cold PBS (pH 7.4) twice with centrifugation and resuspended with 50 μL cold PBS+1% Triton X-100. The cell lysate was sonicated for 15 min before adding equal volume of methanol for LCMS analysis. A small aliquot of cell lysate was used to determine protein concentration by BCA assay kit. The HPLC equipment and methods used in Assay 1 were used in this assay as well and IC50's were calculated.

The target of assay [1] is glucosylceramide synthase (GCS) (Canis lupus familiaris, UniProt A0A8I3MXG6). Kind of assay: GCS Enzymatic Assay (MDCK lysates). It counts as biochemical, canine. The conditions noted are these: MDCK cell lysate, C6-NBD-Ceramide, 37° C. for 1 hour, LC/MS; read-out: Assay 1 (Enzyme Assay; MDCK lysates) IC50. The method, then: Madin-Darby canine kidney (MDCK) cell lysate was prepared using M-PER Mammalian Protein Extraction Reagent (Thermal Scientific) in the presence of a protease inhibitor cocktail (Roche). Protein concentration was determined using BCA assay kit (Pierce). […] 0.1% DMSO was used as mock treatment or control. The reaction was terminated by adding 100 μL acetonitrile solution and subjected to LC/MS analysis.
Sequence of glucosylceramide synthase (GCS) (A0A8I3MXG6 1-394): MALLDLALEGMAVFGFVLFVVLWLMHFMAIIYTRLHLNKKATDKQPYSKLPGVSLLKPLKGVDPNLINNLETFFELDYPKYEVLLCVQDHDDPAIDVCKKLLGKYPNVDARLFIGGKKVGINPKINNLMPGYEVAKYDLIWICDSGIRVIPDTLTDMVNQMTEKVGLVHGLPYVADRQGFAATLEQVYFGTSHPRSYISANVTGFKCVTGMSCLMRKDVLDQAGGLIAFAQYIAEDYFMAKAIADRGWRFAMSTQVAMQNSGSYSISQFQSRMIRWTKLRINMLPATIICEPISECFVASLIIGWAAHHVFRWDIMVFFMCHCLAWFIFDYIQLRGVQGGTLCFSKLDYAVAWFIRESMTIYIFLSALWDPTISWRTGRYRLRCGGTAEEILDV
The quantitative analysis of NBD-Ceramide and glucosylceramide was performed on a Shimadzu ultra-fast liquid chromatography (Shimadzu, Japan) coupled with API 4000 triple quadrupole mass spectrometer (Applied Biosystems, Concord, Ontario, Canada). Sample separation was conducted on a Waters Xbridge™ BEH130 C18, 100 mm×4.6 mm i.d, 3.5 μm (Milford, Mass., USA). The mobile phase consisted of water and acetonitrile supplemented with 0.1% formic acid (v/v). The flow rate was 1.0 mL/min. The initial mobile phase was 20% acetonitrile and was ramped in a linear fashion to 50% acetonitrile in 0.4 min. From 0.4 to 1.5 min, the gradient was ramped to 98% acetonitrile, and then was held at […] until 8.0 min. Acetonitrile was reset to 20% in 1.5 min, and maintained until 10.0 min. The total run time was 10.0 min. The MS/MS detection was performed in ESI positive mode. […] The cell lysate was diluted with equal volume of acetonitrile. Aliquots of 50 μL diluted samples were added to 1.5 mL tubes, and 100 μL of acetonitrile containing internal standard (100 ng/mL tolbutamide) were added for protein precipitation. The mixture were vortexed and then centrifuged at 13000 rpm for 10 min. 70 μL of supernatant were mixed with 140 μL of H2O and the final solution were injected for LC/MS/MS analysis and IC50's and/or percent inhibitions calculated.

On to `Cn1ncc2c3c(ccc21)C(C(=O)N[C@H](CN1CCCC1)[C@H](O)c1ccc(OC2CC2)c(Cl)c1)=NOC3` [Example 33, N-((1R,2R)-1-(3-chloro-4-cyclopropoxyphenyl)-1-hydroxy-3-(pyrrolidin-1-yl)propan-2-yl)-7-methyl-1,7-dihydro-[1,2]oxazino[5,4-e]indazole-4-carboxamide], for which the IC50 with K562 cells was 10 to 100 nM; in assay [1] it was below 10 nM.
On the same counts, the results for `O=C(N[C@H](CN1CCC1)[C@H](O)c1ccc(OC2CC2)c(Cl)c1)C1=NOCc2c1ccc1ccccc21` [Example 26, N-((1R,2R)-3-(azetidin-1-yl)-1-(3-chloro-4-cyclopropoxyphenyl)-1-hydroxypropan-2-yl)-1H-naphtho[2,1-d][1,2]oxazine-4-carboxamide] are at most 10 nM and below 10 nM.
With `O=C(N[C@H](CN1CCC1)[C@H](O)c1ccc(OC2CC2)cc1)C1=NOCc2cc(-c3ccc(F)cc3)ccc21` [Example 6, N-((1R,2R)-3-(azetidin-1-yl)-1-(4-cyclopropoxyphenyl)-1-hydroxypropan-2-yl)-7-(4-fluorophenyl)-1H-benzo[d][1,2]oxazine-4-carboxamide], the IC50 was at most 10 nM in the assay with K562 cells and 10 to 100 nM in assay [1].
For the molecule `O=C(N[C@H](CN1CCC1)[C@H](O)c1ccc(OC2CC2)cc1)C1=NOCc2cc(-c3ccc(Cl)s3)ccc21` [Example 11, N-((1R,2R)-3-(azetidin-1-yl)-1-(4-cyclopropoxyphenyl)-1-hydroxypropan-2-yl)-7-(5-chlorothiophen-2-yl)-1H-benzo[d][1,2]oxazine-4-carboxamide], the IC50 in the assay with K562 cells was at most 10 nM; in assay [1] it was 10 to 100 nM.
In the case of `O=C(N[C@H](CN1CCC1)[C@H](O)c1ccc(OC2CC2)c(F)c1)C1=NOCc2cc(-c3ccc(Cl)s3)ccc21` [Example 9, N-((1R,2R)-3-(azetidin-1-yl)-1-(4-cyclopropoxy-3-fluorophenyl)-1-hydroxypropan-2-yl)-7-(5-chlorothiophen-2-yl)-1H-benzo[d][1,2]oxazine-4-carboxamide], the IC50 with K562 cells was at most 10 nM; in assay [1], below 10 nM.
For the molecule `O=C(N[C@H](CN1CCCC1)[C@H](O)c1ccc(OC2CC2)c(F)c1)C1=NOCc2cc(-c3ccc(Cl)s3)ccc21` [Example 8, 7-(5-chlorothiophen-2-yl)-N-((1R,2R)-1-(4-cyclopropoxy-3-fluorophenyl)-1-hydroxy-3-(pyrrolidin-1-yl)propan-2-yl)-1H-benzo[d][1,2]oxazine-4-carboxamide], the figures for the IC50 (in the assay with K562 cells; in assay [1]) were at most 10 nM and below 10 nM, respectively.
On the same counts, the results for `CN(C(=O)C1=NOCc2cc(-c3ccc(Cl)s3)ccc21)[C@H](CN1CCCC1)[C@H](O)c1ccc(OC2CC2)c(F)c1` [Example 18, 7-(5-chlorothiophen-2-yl)-N-((1R,2R)-1-(4-cyclopropoxy-3-fluorophenyl)-1-hydroxy-3-(pyrrolidin-1-yl)propan-2-yl)-N-methyl-1H-benzo[d][1,2]oxazine-4-carboxamide] are at most 10 nM and 10 to 100 nM.
In the case of `Cn1ncc2ccc3c(c21)CON=C3C(=O)N[C@H](CN1CCCC1)[C@H](O)c1ccc(OC2CC2)c(F)c1` [Example 46, N-((1R,2R)-1-(4-cyclopropoxy-3-fluorophenyl)-1-hydroxy-3-(pyrrolidin-1-yl)propan-2-yl)-1-methyl-1,9-dihydro[1,2]oxazino[4,5-g]indazole-6-carboxamide], the IC50 is at most 10 nM in the assay on K562 cells and below 10 nM in assay [1].
